Source: US7585826B2, “Compositions counteracting pesticides and malodorants” (priority 2007, dated 2009)

Tests used:
[1] = Decomposition rate of 17 pesticides mixed with the composition prepared in Example 1 (HPLC), against tap water or 10% brine controls; assay type: physicochemical; conditions: 10 ppm pesticide, composition of Example 1, 5 min; among seventeen pesticides
Protocol: The above-prepared composition was tested to decompose 17 pesticides, i.e., Diazinon, Terbufos, Acephate, Glyphosate, Phosmet, Mevinphos, Benomyl, Metalaxyl, Pyrnetrozine, Methomyl, Fenobucard, Carbendazim, Pencycuron, Hexaconazole, Thiophanate-methyl, Cartap, and Thiabendazole. The decomposition rates were measured as follows:
Each pesticide was dissolved in tap water at a concentration of 10 ppm. 10 mL pesticide solution was mixed with 10 mL of the composition prepared in Example 1 for 5 min. 10 mL pesticide solution was also mixed with 10 mL tap water or 10 mL 10% brine solution to prepare control solution. The pesticide concentration of each tested reaction solution was measured by high performance liquid chromatography.

[2] = Time-course decomposition of pesticides reacted with the composition prepared in Example 1 (HPLC); assay type: physicochemical; conditions: 7.5 mL of 10 ppm pesticide + 2.5 mL composition of Example 1; after 5.0 min reaction time
Protocol: 7.5 mL of a pesticide solution, containing 10 ppm Terbufos, Diazinon, Hexaconazole, or Fenobucard, was allowed to react with 2.5 mL of the composition prepared in Example 1 for 1.0 min, 3.0 min, and 5.0 min, respectively. HPLC was used to determine the concentrations of the pesticide.

| Compound | decomposition rate compared with the other pesticides tested [1] | pesticide decomposed [2] [%] |
| --- | --- | --- |
| COP(=O)(NC(C)=O)SC (stereo not shown) [Acephate] | higher rates than the others | – |
| CCOP(=S)(OCC)Oc1cc(C)nc(C(C)C)n1 [Diazinon] | – | 87 |
| CCC(C)c1ccccc1OC(=O)NC (stereo not shown) [Fenobucard] | – | 76 |
| CCCCC(O)(Cn1cncn1)c1ccc(Cl)cc1Cl (stereo not shown) [Hexaconazole] | higher rates than the others | 85 |
| CCOP(=S)(OCC)SCSC(C)(C)C [Terbufos] | higher rates than the others | 91 |
